In patent publication US9359371B2, “Bicyclic substituted pyrimidine compounds” (Xuanzhu Pharma Co., Ltd., priority 2012, dated 2016):

Legend:
PDE-5A enzyme = PDE-5A enzyme (Homo sapiens (Human), UniProt O76074); test: Caliper Mobility-Shift PDE-5A Assay; format: biochemical; conditions: Table 1; Avanafil value is the control
[1] = test system: length of New Zealand rabbit's penis; test: Pharmacological activity in vivo (intravenous injection), rabbit penis length; parameters: species or system New Zealand rabbits; conditions: Table 5; iv 10 mg/kg, 1 mL/kg; sodium nitroprussiate 0.2 mg/kg iv 5 min after; 0-120 min
Description: Experiment 5: Assay of Pharmacological Activity In Vivo (Intravenous Injection)
After accommodating with the environment, the New Zealand rabbits were grabbed everyday. When the rabbits were accustomed to the repeated grabbing, drug administration was began. The animals were randomly divided into groups by weight. The test compounds were separately dissolved in menstruum. […] The corresponding test compounds were injected into the auricular veins of animals of each group. The dosage of the compounds in Table 5 was 10 mg/kg, and the administration volume was 1 mL/kg. The dosage of the compounds in Table 6 was 10 mg/kg, and the administration volume was 2 mL/kg. 0.2 mg/kg sodium nitroprussiate was intravenously injected into the rabbits 5 min after the administration of the test compounds, with the administration volume of 0.5 mL/kg.
The length of the rabbit's penis was measured with a digital caliper before and 10, 15, 30, 50, 60, 90 and 120 min after the administration. Touch of the rabbit's penis by the caliper was avoided during the measurements.

[2] = test system: length of New Zealand rabbit's penis; test: Pharmacological activity in vivo (oral administration, 70 mg/kg, with SNP), rabbit penis length; parameters: species or system New Zealand rabbits; conditions: Table 8; oral 70 mg/kg; SNP 0.2 mg/kg iv 60 min after; 0-180 min
Description: Experiment 7: Assay of Pharmacological Activity In Vivo (Oral Administration)
After accommodating with the environment, the New Zealand rabbits were grabbed everyday. When the rabbits were accustomed to the repeated grabbing, drug administration was began. The animals were randomly divided into groups by weight, with 6 rabbits of each group. […] The corresponding test compounds were orally administrated to animals of each group. The dosage was 70 mg/kg, and the administration volume was 1 mL/kg. SNP (0.2 mg/kg, 0.5 mL/kg) was injected into the auricular veins of rabbits 60 min after the administration of the test compounds. The length of the rabbit's penis was measured with a digital caliper before and 10, 15, 30, 50, 60, 65, 70, 75, 90, 110, 120 and 180 min after the administration. Touch of the rabbit's penis by the caliper was avoided during the measurements.

hERG channel = hERG channel (Homo sapiens (Human), UniProt Q12809); test: hERG potassium channel whole-cell patch clamp on CHO-K1 cell line
Text: Experiment 8: Detection of Inhibitory Effect of the Compounds of the Present Invention on hERG Potassium Channel by the Patch Clamp Method
Rapidly activated human delayed rectifying outward potassium current (IKr) is mainly mediated by hERG ion channel and is involved in repolarization of human cardiac muscle cell. Clinically, blocking of the current by a drug is the main cause of QT interval prolongation syndrome, acute arrhythmia and even sudden death. The main purpose of the experiment is to test the blocking effect of the compounds of the present invention on hERG channel, and to determine the half maximal inhibitory concentration (IC50) of the compounds.
The experiment mainly included: (1) recording hERG current by patch clamp technique on CHO-K1 cell line which stably expressed hERG channel; (2) calculating the Inhibition rate of each concentration according to hERG tail current; (3) testing each compound at 5 concentrations to calculate IC50; (4) testing 2 cells at each concentration; (5) a positive control.
The structures and synthesis of Compound 88 (WO-88) and Compound 93 (WO-93) as disclosed in WO200119802A were described in Example 55 and Example 56.
Drug for positive control: Amitriptyline hydrochloride (Sigma-Aldrich, an international standard blocker for hERG channel)
Pippette Solution (in mM): KCl 120, KOH 31.25, CaCl2 5.374, MgCl2 1.75, Ethylene glycol-bis(β-aminoethyl ether)-N,N,N′,N′-tetraacetic acid (EGTA) 10, HEPES 10, Na2-ATP 4, adjusted to a pH of 7.2 with 1N potassium hydroxide; adjusted to an osmotic pressure of 280-290 mOsm; preserved at −20° C. after filtration.
Preparation of compounds: Some of the compounds of the present invention and Amitriptyline hydrochloride as the positive control drug were separately dissolved in 100% DMSO (Merck, 61850125001730), then prepared into stock solutions of 30 mM. Before the experiment, the above stock solutions were diluted with DMSO to a concentration of 1000-fold of the experimental concentration. Then the diluted solutions were further diluted with extracellular solution by 1:1000 to the required experimental concentration. The final concentration of DMSO in the extracellular solution was kept as 0.1%.
Stable cell line CHO-hERG was purchased from AVIVA Company. The hERG current on the cell line was recorded. For the purpose of quality control, the smallest seal resistance was no less than 500 MΩ, and the hERG current was no less than 0.4 nA.
The hERG current was recorded by a whole-cell patch clamp technique. Cell suspension was added into a 35-mm culture dish. The culture dish was placed on the objective table of an inverted microscope. Upon cell attachment, perfusion was conducted with the extracellular solution at a flow rate of 1-2 mL/min.
Glass microelectrode with the pipette tip resistance of 2-5 MΩ was controlled by a microelectrode puller via a two-step process. After the whole-cell record was set up, the clamp potential was kept at −80 mV. The cell was depolarized to +60 mV by applying a voltage stimulus, and then repolarized to −50 mV to obtain the hERG tail current. Recordation was conducted after the current was stable. The extracellular perfusion was started from the lowest concentration, with 5-10 min for each concentration until the current was stable, and then conducted with the next concentration.
Stimulus payment and signal collection were performed by A/D-D/A conversion using Digidata 1440 (Molecular Devices) and pCLAMP software (Version 10.2, Molecular Devices). Signal amplification was performed on a patch clamp amplifier (Multiclamp 700B, Molecular Devices), with a filter of 1 KHz. Further data analysis and curve fitting were conducted by Clampfit (version 10.2, Molecular Devices) and Prism. The data were presented as mean value±standard deviation.
In the process of data analysis, the peak value and the baseline of the tail current were corrected when determining the blocking effect on hERG.

Sequence of hERG channel (Q12809 whole entry): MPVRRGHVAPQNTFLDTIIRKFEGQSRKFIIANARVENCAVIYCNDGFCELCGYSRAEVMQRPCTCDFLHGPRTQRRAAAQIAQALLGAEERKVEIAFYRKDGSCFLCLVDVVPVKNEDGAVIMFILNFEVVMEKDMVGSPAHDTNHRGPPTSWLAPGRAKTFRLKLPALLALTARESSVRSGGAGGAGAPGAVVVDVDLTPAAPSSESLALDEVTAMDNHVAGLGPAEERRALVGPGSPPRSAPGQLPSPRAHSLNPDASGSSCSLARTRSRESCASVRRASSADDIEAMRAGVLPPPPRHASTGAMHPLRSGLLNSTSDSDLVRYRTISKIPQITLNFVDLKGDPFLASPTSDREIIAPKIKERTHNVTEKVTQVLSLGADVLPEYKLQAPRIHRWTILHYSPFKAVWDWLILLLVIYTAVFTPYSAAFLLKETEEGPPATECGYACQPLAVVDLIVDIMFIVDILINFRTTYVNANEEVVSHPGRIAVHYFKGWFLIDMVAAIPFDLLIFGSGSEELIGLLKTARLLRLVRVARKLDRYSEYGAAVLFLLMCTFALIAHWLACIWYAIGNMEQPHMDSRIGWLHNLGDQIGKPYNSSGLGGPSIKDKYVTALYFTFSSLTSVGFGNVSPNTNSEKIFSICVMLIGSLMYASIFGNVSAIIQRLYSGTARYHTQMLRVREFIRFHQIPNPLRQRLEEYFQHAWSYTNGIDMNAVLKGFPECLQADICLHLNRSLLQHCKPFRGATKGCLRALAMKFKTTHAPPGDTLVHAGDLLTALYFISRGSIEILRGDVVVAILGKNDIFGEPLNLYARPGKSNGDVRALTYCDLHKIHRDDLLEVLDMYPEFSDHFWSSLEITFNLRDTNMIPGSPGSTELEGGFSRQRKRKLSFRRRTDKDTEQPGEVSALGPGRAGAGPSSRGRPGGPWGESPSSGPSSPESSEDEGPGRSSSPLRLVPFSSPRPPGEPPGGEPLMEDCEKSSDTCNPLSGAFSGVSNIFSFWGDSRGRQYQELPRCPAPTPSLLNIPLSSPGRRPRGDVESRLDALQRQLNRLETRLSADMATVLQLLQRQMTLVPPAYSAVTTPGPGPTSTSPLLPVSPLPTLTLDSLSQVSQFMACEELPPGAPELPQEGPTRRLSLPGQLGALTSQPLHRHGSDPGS

COc1ccc(CNc2nc(N3CC4CC4C3)ncc2C(=O)N[C@H]2CC[C@H](O)CC2)cc1Cl (stereo partly drawn) [Compound 11, 2-(3-azabicyclo[3.1.0]hexan-3-yl)-4-((3-chloro-4-methoxybenzyl)amino)-N-(trans-4-hydroxycyclohexyl)pyrimidine-5-formamide]
IC50 (PDE-5A enzyme): 4.02 nM | AUC of penis length [1]: 323.3 mm × min | AUC of penis length [2]: 540.7 mm × min | IC50 (hERG channel): > 30000 nM | inhibitory effect on hERG channel (in words) (hERG channel; human, CHO-K1 cells stably expressing hERG channel, pH 7.4): none of Compound 3, 11 and 50 of the present invention had a significant inhibitory effect
